The numbers were not newly measured in patent US9060929B2, “Alprostadil for treatment of premature ejaculation” (Nexmed Holdings, Inc., priority 2003, dated 2015), which cites them from elsewhere.

Like-named read-outs stand apart in the source and are kept apart here.

Series [1] has as its system men with premature ejaculation and/or erectile dysfunction.
In the next series the test system is patients with PE. The note with it: 6 months.

For the molecule `CNCCC(Oc1ccc(C(F)(F)F)cc1)c1ccccc1` (stereo not shown) [fluoxetine], the latency to ejaculation entry in series [1] (PE and PE+ED group taken together, p=0.007) is on record as “increased significantly”; in series [1] (PE+ED group, p=0.03), “increased significantly”.
`CN[C@H]1CC[C@@H](c2ccc(Cl)c(Cl)c2)c2ccccc21` [sertraline]: the “ejaculation latency after treatment” value is 247.2 s with patients with PE (PE group, 50 mg sertraline four hours before sex) and 111.6 s with patients with PE (PE+ED group (sildenafil-treated), 50 mg sertraline).
